Results taken from patent publication US9428452B2, “Compounds” (Glaxo Group Limited, priority 2012, dated 2016).

Key:
[1] = system: IL-17A secreted from antiCD3/CD28 stimulated Peripheral Blood Mononuclear cells (PBMC); test: Peripheral Blood Mononucleocyte Cell Assay (PBMC Assay - IL-17); assay type: cell-based; conditions: Homo sapiens, 48 h, IL-17A release, read-out: mean pIC50 (converted)
Description: Peripheral Blood Mononucleocvte Cell Assay (PBMC Assay—IL-17) […]
This assay is designed to measure levels of IL-17A secreted from antiCD3/CD28 stimulated frozen Peripheral Blood Mononuclear cells (PBMC) isolated from human blood with the aim of identifying inhibitors of IL-17A release.
2. The compounds for screening are dispensed into a master plate at 10 mM top concentration which are serially diluted 1:3 across 11 points in DMSO, then 500 nL is transferred into a 384-well flat-bottomed Greiner plate to which 50 uL of cell suspension is added: for the single shot screening the highest concentration of compound is 10^−5M; for 11 point full curve dose response studies the highest concentration is 10^−4 M.
As a low control, DMSO (as supplied, for example, by VWR) (final concentration 1%) in column 6 (16 points).
As a high control, 5-(4-fluorophenyl)-2-ureidothiophene-3-carboxamide (obtainable from, for example, Sigma) at a final concentration of 10^−4 M in DMSO should be used in column 18 (16 points).
9. Make the cell suspension at the concentration 8×10^5 cells/mL to give a final number of 40,000 cells/well.
1. Add well mixed CD3/CD28 Dynabeads (as supplied, for example, by Dynal) to achieve ratio bead:cell=2:1 (ie. a dilution of 1 in 20). Mix thoroughly.
2. Dispense the suspension into the 384 Assay Plates using Multidrop (50 uL per well). If the volume of cell suspension is large, mix the suspension after dispensing into every other plate.
3. Cover the plates with the lids and place them to the humidified incubator (37° C., 5% CO2) for 48 hours.
1. Transfer 10 uL of supernatants from assay plates to the MSD plates using Cybiwell. Ensure that all wells are covered with the solution. Tap the plate gently, if some of the wells are not covered with the supernatant.
3. Add 10 uL of MSD IL-17 detecting antibody using multidrop (1 ug/mL in D-PBS without Ca^2+ and Mg^2+ (supplied, for example, by Gibco)).
4. Cover the plates with adhesive foil and incubated with shaking for 3 hours at room temperature
7. Add 35 uL of MSD Read Buffer T×2 using multidrop.
8. Read plates on MSD MA6000 reader using the 384 well plate protocol as per manufacturer's instructions.

[2] = molecular target: T1, Human RORγ Ligand Binding Domain (RORγ-LBD) (Homo sapiens, UniProt P51449); test: Dual Fluorescence Energy Transfer (FRET) assay: co-activator SRC1(2) peptide interaction with RORγ-LBD; assay type: biochemical; conditions: RORγ-LBD / SRC1(2) peptide, read-out: mean pIC50 (converted)
T1 construct: His6 with thrombin site) (N); made in house; host or cells: E. coli BL21(DE3), modified pET21a vector
T1 sequence (P51449 263-518): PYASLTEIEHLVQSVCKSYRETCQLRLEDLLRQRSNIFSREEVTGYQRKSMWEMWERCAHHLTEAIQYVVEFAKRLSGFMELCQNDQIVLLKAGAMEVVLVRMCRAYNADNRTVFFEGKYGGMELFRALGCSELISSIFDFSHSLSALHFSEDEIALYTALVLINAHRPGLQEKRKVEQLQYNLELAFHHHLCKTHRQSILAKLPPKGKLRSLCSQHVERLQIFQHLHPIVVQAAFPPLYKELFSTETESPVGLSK

Structure (SMILES): CCc1ccc(N(CC(C)C)S(=O)(=O)c2ccc([C@@H](O)CN3CCOCC3)c(CO)c2)cc1 [Example E126, N-(4-ethylphenyl)-4-(1-hydroxy-2-morpholinoethyl)-3-(hydroxymethyl)-N-isobutylbenzenesulfonamide]
- IC50 [1]: 794 nM
- IC50 [2]: 63.1 nM
